{"source": "paper PMC8277557", "about": "(Bioorganic & Medicinal Chemistry Letters, 2021)", "origin": "cited, not measured here", "key": {"CoV-2 3CLpro": {"system": "CoV-2 3CLpro", "conditions": "for IC50: read-out: Literature IC50, CoV-2 3CLpro"}, "[1]": {"conditions": "in vivo"}}, "note": "Read-outs that look alike come from different tables or passages of the source.", "data": [{"compound": "CCOC(=O)/C=C/[C@H](C[C@@H]1CCNC1=O)NC(=O)[C@H](CC(C)C)NC(=O)[C@@H](NC(=O)OCc1ccccc1)C(C)C", "note": "[Compound 3]", "values": [{"measurement": "Ki", "setting": "CoV-1 3CLpro; read-out: Literature Ki, CoV-1 3CLpro, ref [19]", "result": 0.66, "unit": "µM"}]}, {"compound": "CCCC[C@@H](C=O)NC(=O)[C@H](CC(C)C)NC(=O)OCc1ccccc1", "note": "[Calpeptin]", "values": [{"measurement": "IC50", "setting": "CoV-2 3CLpro; ref [16]", "result": "10.7 ± 0.28", "unit": "µM"}, {"measurement": "IC50", "setting": "CoV-2 3CLpro; ref [31]", "result": "4.81 ± 0.18", "unit": "µM"}]}, {"compound": "Boceprevir", "values": [{"measurement": "IC50", "setting": "CoV-2 3CLpro; ref [16]", "result": "4.13 ± 0.61", "unit": "µM"}, {"measurement": "IC50", "setting": "CoV-2 3CLpro; ref [29]", "result": "5.4 ± 1.53", "unit": "µM"}]}, {"compound": "O=C[C@H](C[C@@H]1CCNC1=O)NC(=O)[C@H](Cc1cccc(F)c1)NC(=O)c1cc2ccccc2[nH]1", "note": "[Compound 11b]", "values": [{"measurement": "IC50", "setting": "CoV-2 3CLpro; ref [20]", "result": "0.04 ± 0.002", "unit": "µM"}]}, {"compound": "CCOC(=O)/C=C/[C@H](C[C@@H]1CCNC1=O)NC(=O)[C@@H](CC(=O)[C@@H](NC(=O)c1cc(C)on1)C(C)C)Cc1ccc(F)cc1", "note": "[Rupintrivir]", "values": [{"measurement": "activity against SARS-CoV-2 3CLpro", "setting": "CoV-2 3CLpro; ref [16], [19]", "result": "inactive"}, {"measurement": "activity against SARS-CoV-1 3CLpro", "setting": "CoV-1 3CLpro", "result": "inactive"}]}, {"compound": "CC(C)C[C@H](NC(=O)OCc1ccccc1)C(=O)N[C@@H](C[C@@H]1CCNC1=O)C(=O)c1nc2ccccc2s1", "note": "[Compound 25c]", "values": [{"measurement": "IC50", "setting": "CoV-1 3CLpro; read-out: Literature IC50", "result": 21, "unit": "µM"}]}, {"compound": "C[C@@H](OC(C)(C)C)[C@H](NC(=O)OCc1ccccc1)C(=O)N[C@@H](CC1CCCCC1)C(=O)N[C@H](C=O)C[C@@H]1CCNC1=O", "note": "[TG-0205221]", "values": [{"measurement": "pharmacokinetic profile in rodents", "setting": "[1]", "result": "favourable pharmacokinetic profile"}]}]}
